Results: paper PMC7731314, “Tropinone-Derived Alkaloids as Potent Anticancer Agents: Synthesis, Tyrosinase Inhibition, Mechanism of Action, DFT Calculation, and Molecular Docking Studies” (International Journal of Molecular Sciences, 2020)
Where two headings read alike, the source gives them in different places.

Experiments:
[1] = system: human breast adenocarcinoma (MDA-MB-231) cell line; test: MTT cell proliferation assay, MDA-MB-231; type: cell-based; settings: MDA-MB-231, antiproliferative, MTT, 72 h, read-out: IC50 ± SD MDA-MB-231
Text: The influence of the tested compounds on the proliferation of melanoma B16F10 and breast MDA-MB-231 cells was estimated with the MTT assay as described previously. The cells counted using an automated cell counter (Countess® II FL, Invitrogen by Thermo Fisher Scientific Inc., Waltham, MA USA) and plated in 96-well plates (Nunc Edge 2F, Thermo Fisher Scientific Inc.) at a density of 0.1 × 10^4 and 0.2 × 10^4 per well, respectively. A total of twenty-four hours later, drugs were applied with final concentration: 5, 0.5, 0.05, and 0.005 μg/mL, and after an additional seventy-two hours MTT staining was performed as follows: twenty microliters of 5 mg/mL MTT solution and was added to each well of 96-well plate incubated for 2 h. Subsequently, the medium was removed and crystals of formazan were solubilized in pure isopropanol. Absorbance readout was conducted immediately using plate reader Multiskan Spectrum at 570 nm (Thermo Electron Corporation, Waltham, MA, USA). The background optical density was measured in the wells filled with culture medium, without the cells. The biological evaluation was performed as three independent experiments. The IC50 values were calculated using ED50plus v 1.0 freeware software and the mean response and standard deviation were calculated using Excel software. All of the chemicals were obtained from Sigma-Aldrich.

A549 cells = test: Annexin V-FITC/PI cell death by flow cytometry, A549; type: cell-based, human; settings: for IC50: Homo sapiens, read-out: IC50 for apoptosis
Procedure: (§1) The quantitative analysis of compound 3a-induced cell death was performed using an Annexin V-fluorescein isothiocyanate (FITC)/propidium iodide (PI) apoptosis kit (BD Biosciences, BD Pharmingen™, San Jose, CA, USA) as previously described. Briefly, the RPMI 8226 or A549 cells growing on the 6-well plates in the culture medium with 2% FBS were subjected to increasing concentrations of compound 3a (2.5, 5, 10, 20, or 40 μM) for 24 and 48 h. After the treatment, the cells were harvested, centrifuged at 1000 rpm and room temperature (RT) for 5 min, washed twice with PBS, and stained with […] of AnnexinV-FITC and […] of PI. After incubation for 15 min in the dark at room temperature, the cells were immediately analyzed using FACS Calibur. The intensity of fluorescence of AnnexinV-FITC and PI stained cells was determined by acquisition of at least 10,000 events per sample within the rate >60 events/s. The FACS data were analyzed using Cell Quest Pro Version 6.0. for the Macintosh operating system. The data were analyzed to determine the percentage of viable, early apoptotic, late apoptotic, and necrotic cells.

[2] = system: human lung carcinoma (A549) cell line; test: MTT cell proliferation assay, A549; type: cell-based; settings: antiproliferative, 96 h, read-out: IC50 ± SD A549
Procedure: The influence of the tested compounds on the proliferation of RPMI 8226 and A549 cells was estimated with the MTT assay as described previously. Briefly, 1 × 10^4 cells/mL (RPMI 8226) or 0.2 × 10^4 (A549) cells per well were seeded into 96-well plates and cultured (in growth medium containing 10% FBS) with different concentrations of each compound ranging from 3.125 to 100 μM. The control cells were treated with the vehicle DMSO (0.1%).

RPMI 8226 cells = test: Annexin V-FITC/PI cell death by flow cytometry, RPMI 8226; type: cell-based, human; settings: for IC50: Homo sapiens, read-out: IC50 for apoptosis (concentration inducing apoptosis in 50% of cells)
Procedure: as §1

Q: For `CN1C2CCC1CC(=NNc1nc(-c3ccc(I)cc3)cs1)C2` [Compound 3a, 4-(4-Iodophenyl)-2-(2-(8-methyl-8-azabicyclo[3.2.1]octan-3-ylidene)hydrazinyl)thiazole], which IC50 [1] is on record?
A: Its IC50 is 2.26 ± 0.38 µM.

Q: And the “Apoptosis (early + late)” value (A549 cells; A549, 2.5 µM, 24 hours)?
A: The value was 14.30±2.21 % of cells ± SD.

Q: What about the Necrosis (A549 cells; A549, 2.5 µM, 24 hours) of the same molecule?
A: The Necrosis was 4.79±1.14 % of cells ± SD.

Q: What about the “Apoptosis (early + late)” value (A549 cells; A549, 2.5 µM, 48 hours) of the same molecule?
A: The value was 18.41±3.95 % of cells ± SD.

Q: And the Necrosis (A549 cells; A549, 2.5 µM, 48 hours)?
A: Its Necrosis is 4.11±1.44 % of cells ± SD.

Q: What about the “Apoptosis (early + late)” value (A549 cells; A549, 5 µM, 24 hours) of the same molecule?
A: Its value is 14.82±2.42 % of cells ± SD.

Q: And the Necrosis (A549 cells; A549, 5 µM, 24 hours)?
A: The Necrosis was 4.40±1.66 % of cells ± SD.

Q: And the “Apoptosis (early + late)” value (A549 cells; A549, 5 µM, 48 hours)?
A: Its value is 22.48±8.36 % of cells ± SD.

Q: What about the Necrosis (A549 cells; A549, 5 µM, 48 hours) of the same molecule?
A: Its Necrosis is 4.93±4.26 % of cells ± SD.

Q: What about the “Apoptosis (early + late)” value (A549 cells; A549, 10 µM, 24 hours) of the same molecule?
A: The value was 18.18±2.52 % of cells ± SD.

Q: What about the Necrosis (A549 cells; A549, 10 µM, 24 hours) of the same molecule?
A: The Necrosis was 4.87±1.35 % of cells ± SD.

Q: And the “Apoptosis (early + late)” value (A549 cells; A549, 10 µM, 48 hours)?
A: Its value is 27.17±11.71 % of cells ± SD.

Q: What about the Necrosis (A549 cells; A549, 10 µM, 48 hours) of the same molecule?
A: The Necrosis was 4.09±2.58 % of cells ± SD.

Q: And the “Apoptosis (early + late)” value (A549 cells; A549, 20 µM, 24 hours)?
A: The value was 23.43±4.57 % of cells ± SD.

Q: What about the Necrosis (A549 cells; A549, 20 µM, 24 hours) of the same molecule?
A: Its Necrosis is 4.56±1.90 % of cells ± SD.

Q: What about the “Apoptosis (early + late)” value (A549 cells; A549, 20 µM, 48 hours) of the same molecule?
A: Its value is 40.20±9.87 % of cells ± SD.

Q: And the Necrosis (A549 cells; A549, 20 µM, 48 hours)?
A: The Necrosis was 4.87±3.04 % of cells ± SD.

Q: What about the “Apoptosis (early + late)” value (A549 cells; A549, 40 µM, 24 hours) of the same molecule?
A: Its value is 73.96±19.94 % of cells ± SD.

Q: And the Necrosis (A549 cells; A549, 40 µM, 24 hours)?
A: The Necrosis was 7.89±1.10 % of cells ± SD.

Q: What about the “Apoptosis (early + late)” value (A549 cells; A549, 40 µM, 48 hours) of the same molecule?
A: Its value is 89.43±6.65 % of cells ± SD.

Q: What about the Necrosis (A549 cells; A549, 40 µM, 48 hours) of the same molecule?
A: The Necrosis was 8.81±6.51 % of cells ± SD.

Q: What about the Necrosis induction (A549 cells; A549, up to highest concentration 40 µM) of the same molecule?
A: The Necrosis induction was “did not induce necrosis”.

Q: What about the IC50 (A549 cells; A549, 24 h) of the same molecule?
A: Its IC50 is 27.7 µM.

Q: What about the IC50 (A549 cells; A549, 48 h) of the same molecule?
A: The IC50 was 17.4 µM.

Q: And the IC50 [2]?
A: The IC50 was 13.8 ± 1.9 µM.

Q: And the IC50 (RPMI 8226 cells; RPMI 8226, 24 h)?
A: Its IC50 is 14.6 µM.

Q: And the IC50 (RPMI 8226 cells; RPMI 8226, 48 h)?
A: Its IC50 is 7.91 µM.

Q: And the “Apoptosis (early + late)” value (RPMI 8226 cells; RPMI 8226, 2.5 µM, 24 hours)?
A: Its value is 19.53 ± 2.64 % of cells ± SD.

Q: And the Necrosis (RPMI 8226 cells; RPMI 8226, 2.5 µM, 24 hours)?
A: The Necrosis was 3.62 ± 0.87 % of cells ± SD.

Q: And the “Apoptosis (early + late)” value (RPMI 8226 cells; RPMI 8226, 2.5 µM, 48 hours)?
A: The value was 20.93 ± 1.83 % of cells ± SD.

Q: And the Necrosis (RPMI 8226 cells; RPMI 8226, 2.5 µM, 48 hours)?
A: Its Necrosis is 5.54 ± 0.44 % of cells ± SD.

Q: What about the “Apoptosis (early + late)” value (RPMI 8226 cells; RPMI 8226, 5 µM, 24 hours) of the same molecule?
A: The value was 22.23 ± 6.01 % of cells ± SD.

Q: What about the Necrosis (RPMI 8226 cells; RPMI 8226, 5 µM, 24 hours) of the same molecule?
A: Its Necrosis is 6.35 ± 2.57 % of cells ± SD.

Q: What about the “Apoptosis (early + late)” value (RPMI 8226 cells; RPMI 8226, 5 µM, 48 hours) of the same molecule?
A: Its value is 31.71 ± 11.36 % of cells ± SD.

Q: And the Necrosis (RPMI 8226 cells; RPMI 8226, 5 µM, 48 hours)?
A: The Necrosis was 7.53 ± 2.61 % of cells ± SD.

Q: What about the “Apoptosis (early + late)” value (RPMI 8226 cells; RPMI 8226, 10 µM, 24 hours) of the same molecule?
A: Its value is 39.58 ± 9.33 % of cells ± SD.

Q: What about the Necrosis (RPMI 8226 cells; RPMI 8226, 10 µM, 24 hours) of the same molecule?
A: The Necrosis was 9.94 ± 2.73 % of cells ± SD.

Q: And the “Apoptosis (early + late)” value (RPMI 8226 cells; RPMI 8226, 10 µM, 48 hours)?
A: The value was 58.25 ± 21.57 % of cells ± SD.

Q: What about the Necrosis (RPMI 8226 cells; RPMI 8226, 10 µM, 48 hours) of the same molecule?
A: The Necrosis was 11.08 ± 5.38 % of cells ± SD.

Q: What about the “Apoptosis (early + late)” value (RPMI 8226 cells; RPMI 8226, 20 µM, 24 hours) of the same molecule?
A: The value was 60.41 ± 0.99 % of cells ± SD.

Q: And the Necrosis (RPMI 8226 cells; RPMI 8226, 20 µM, 24 hours)?
A: Its Necrosis is 18.5 ± 2.38 % of cells ± SD.

Q: And the “Apoptosis (early + late)” value (RPMI 8226 cells; RPMI 8226, 20 µM, 48 hours)?
A: Its value is 76.93 ± 14.34 % of cells ± SD.

Q: What about the Necrosis (RPMI 8226 cells; RPMI 8226, 20 µM, 48 hours) of the same molecule?
A: The Necrosis was 20.18 ± 11.99 % of cells ± SD.
